This note sets out measurements from ChEMBL document CHEMBL1201862, “PubChem BioAssay data set” (2004).

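Following 48 hours of exposure in 96-well plates, responses at five concentrations were used to interpolate endpoints linearly. GI50 is the concentration that inhibits growth by half.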 Activity calls are given as the source filed them. Cut-off read from the data, not from the text of the source: active = GI50 up to about 1.1 µM and inactive = higher.

Holding throughout (experiment): NCI anticancer screen, dose series, 48 h
Experiment [1] relates to M19-MEL.
In experiment [2] the test system is DMS-273.
Experiment [3] has as its system XF498.
Experiment [4] relates to KM-20L2.
Experiment [5] concerns DMS-114.
In experiment [6] the test system is DLD-1.
For experiment [7], the system named is SNB-78.
Experiment [8] deals with HOP-18.
Experiment [9] deals with RXF 631.

For `COC(=O)c1cc(OC(C)=O)c2c(OC)ccc(OC)c2c1`, the GI50 in [1], in experiment [2], in experiment [3], in [4], in experiment [5] and in experiment [6] was > 100 µM (inactive) in each case. In addition, the GI50 in experiment [7] was > 100 µM (inactive).
Regarding `CC(=O)NNc1nc(C)c(C(/C=C/c2ccc(Cl)cc2)=N/NC(=S)NN)s1`, the GI50 in experiment [8], in experiment [1], in [2], in [9], in [3] and in experiment [4] was > 100 µM (inactive) in each case. For the same molecule, the GI50 in [5], in experiment [6] and in experiment [7] was > 100 µM (inactive) in each case.
On to `O=C1CCN(CCC(F)(F)C(F)(F)C(F)(F)C(F)(F)F)C(=S)N1`, for which the GI50 in experiment [1], in experiment [2], in experiment [3], in experiment [4], in experiment [5] and in [7] was > 100 µM (inactive) throughout.
For `CN(C)/N=N/c1ccc(C(N)=O)cc1`, the GI50 in [8], in [1], in experiment [2], in experiment [3], in experiment [4] and in experiment [5] was > 100 µM (inactive) in each case. For the same molecule, the GI50 in [6] and in [7] was > 100 µM (inactive) in each case.
As to `COc1cc(C(=O)O)cc2c1[nH]c1ccccc12` [MUKOEIC ACID], the GI50 in [1], in experiment [2], in experiment [4], in [5], in experiment [6] and in experiment [7] was > 25 µM (inactive) throughout.
Turning to `Cc1ccc(C2=C(c3ccccc3)C(=O)C(c3ccccc3)=C2c2ccc(C)cc2)cc1`, the GI50 in [8] is > 100 µM (inactive); in [1] it was 41.1 µM (inactive); in [3], 35.3 µM (inactive); in experiment [4] it was 45.8 µM (inactive); in experiment [6], 41.2 µM (inactive); in experiment [7], 31.6 µM (inactive).
For `COC(=O)/C(=N\NC(N)=S)C(C(=O)OC)C(=O)C(=O)Nc1ccc(C)cc1` (stereo not drawn), the GI50 in experiment [8], in experiment [1], in experiment [2], in [9], in experiment [3] and in experiment [4] was > 100 µM (inactive) each time. Moreover, the GI50 in experiment [5], in [6] and in [7] was > 100 µM (inactive) each time.
With `CC(C)=CC(=O)Cc1nc2cc(C)c(C)cc2[nH]c1=O`, the GI50 in [8], in experiment [1], in experiment [2], in experiment [9], in [4] and in [6] was > 100 µM (inactive) each time. The GI50 in [7] is > 100 µM (inactive).
Consider `CC(Oc1ccc(OCC2CCCCC2)cc1)C(=O)NCCO` (stereo not drawn), for which the GI50 in experiment [8] is > 100 µM (inactive); in experiment [1], > 100 µM (inactive); in experiment [2] it was > 100 µM (inactive); in experiment [5] it was 39.8 µM (inactive); in experiment [6], > 100 µM (inactive); in [7], > 100 µM (inactive).
On to `Cn1c2c(c3ccccc31)CCN(CCCN1CCN(c3cccc(Cl)c3)CC1)C2=O`, for which the GI50 in experiment [8] is 22.9 µM (inactive); in experiment [1] it was 20.2 µM (inactive); in experiment [2], 24.1 µM (inactive); in [9], 24.7 µM (inactive); in experiment [3], 10.4 µM (inactive); in experiment [4], 2.87 µM (inactive). Moreover, the GI50 was 14.2 µM (inactive) in experiment [5] and 23 µM (inactive) in [6].
With `CCOC(=O)Cn1c(=O)n(C)c(=O)c2c1ncn2Cc1ccccc1`, the GI50 in experiment [1] was > 100 µM (inactive); in experiment [2], > 100 µM (inactive); in [3] it was 98.2 µM (inactive); in [4], > 100 µM (inactive); in experiment [5], > 100 µM (inactive); in experiment [6], > 100 µM (inactive). Further, the GI50 in [7] was > 100 µM (inactive).
Consider `O=c1c2cccc3cccc(c4n1CCCN=4)c32`, for which the GI50 in experiment [8], in experiment [1], in [2], in experiment [9], in [3] and in experiment [4] was > 100 µM (inactive) in each case. Also, the GI50 in experiment [5], in [6] and in experiment [7] was > 100 µM (inactive) each time.
For `CC1=NN(C(=O)c2ccccc2O)C(=O)/C1=C/c1cccc([N+](=O)[O-])c1`, the GI50 in [4] was 15.6 µM (inactive); in [5], 1.66 µM (inactive); in experiment [6], 0.459 µM (active); in [7], > 100 µM (inactive).
As for `CC(C)=Cc1cc(C(=O)NCCNC(=O)c2cc(C=C(C)C)nc(NC#N)n2)nc(NC#N)n1`, the GI50 in [8], in experiment [1], in experiment [3], in [4] and in experiment [5] was > 100 µM (inactive) throughout.
Take `O=C(CCc1n[nH]c(=S)o1)Nc1ccccc1C(F)(F)F`: the GI50 in experiment [8], in [1], in experiment [2], in [9], in experiment [4] and in [5] was > 100 µM (inactive) each time. Moreover, the GI50 in [6] and in [7] was > 100 µM (inactive) each time.
As to `CC1=NN(C(=O)c2ccc(Cl)cc2)C(=O)/C1=C/c1ccc(Cl)cc1`, the GI50 in experiment [1] is > 100 µM (inactive); in experiment [3], > 100 µM (inactive); in experiment [4], > 100 µM (inactive); in [5] it was > 100 µM (inactive); in experiment [6] it was > 100 µM (inactive); in experiment [7] it was 40.8 µM (inactive).
For `Cc1[nH]nc2c1C(=O)C=C(N(CCO)c1ccccc1)C2=O`, the GI50 in experiment [8], in experiment [1], in experiment [2], in [5], in experiment [6] and in experiment [7] was > 100 µM (inactive) each time.
As to `CCN(CC)CCNC(=O)c1cccc2nc3ccccc3nc12`, the GI50 in experiment [8] is > 26.4 µM (inactive); in experiment [2], 7.26 µM (inactive); in experiment [4] it was 13.6 µM (inactive); in experiment [5], 7.85 µM (inactive); in experiment [6] it was > 26.7 µM (inactive); in experiment [7], 21.4 µM (inactive).
`CSc1nc2nc(C(O)C(O)C(O)CO)cnc2c(=O)[nH]1` (stereo not drawn): the GI50 in experiment [1], in experiment [2], in [3], in experiment [4], in experiment [5] and in experiment [6] was > 100 µM (inactive) in each case. Further, the GI50 in [7] was > 100 µM (inactive).
Regarding `C=C(C)[C@@H]1CC=C(CO)CC1` [PERILLYL ALCOHOL], the GI50 in experiment [1] was 182 µM (inactive); in [9], 565 µM (inactive); in [3], 123 µM (inactive); in experiment [4], 265 µM (inactive); in experiment [5] it was 124 µM (inactive); in experiment [6], 220 µM (inactive). For the same molecule, the GI50 in experiment [7] was 200 µM (inactive).
Regarding `CC(=O)C1=CSC2[C@H](NC(=O)Cc3ccccc3)C(=O)N2C1C(=O)OC(c1ccccc1)c1ccccc1` (stereo partly drawn), the GI50 in experiment [1] is 96.4 µM (inactive); in experiment [2] it was 67.9 µM (inactive); in experiment [9], > 100 µM (inactive); in [3], > 100 µM (inactive); in [5], 84.3 µM (inactive); in experiment [6] it was > 100 µM (inactive). Moreover, in [7], the GI50 is > 100 µM (inactive).
Take `CN(C)CC1CCC(CN(C)C)C(=O)C1=O` (stereo not drawn): the GI50 in experiment [8] was 1.5 µM (inactive); in experiment [1] it was 19 µM (inactive); in [2], 15.8 µM (inactive); in experiment [3] it was 2.54 µM (inactive); in [4], 16.4 µM (inactive); in experiment [5] it was 6.62 µM (inactive). Also, the GI50 in experiment [6] is 3.05 µM (inactive).
Take `OCCCCn1cnc2c(O)ncnc21`: the GI50 in [8], in [1], in [4], in experiment [5], in experiment [6] and in experiment [7] was > 100 µM (inactive) each time.
Take `CCOC(=O)NC(=O)c1cn(CCN2CCN(C(=O)CCCCCCCCCCNc3ncnc4c3ncn4C3OC(CO)C(O)C3O)CC2)c(=O)[nH]c1=O` (stereo not drawn): the GI50 in [9], in [3], in experiment [4], in experiment [5], in [6] and in experiment [7] was > 100 µM (inactive) each time.
In the case of `CC1OC(=O)N(CCCC=C2SCCCS2)C1=O` (stereo not drawn), the GI50 in [8], in experiment [1], in experiment [2], in experiment [3], in [4] and in [5] was > 100 µM (inactive) in each case. Further, the GI50 in [7] is > 100 µM (inactive).
Consider `Sc1nnc(COc2ccc(Cl)cc2)[nH]1`, for which the GI50 in experiment [1], in experiment [2], in [9], in experiment [4], in experiment [5] and in experiment [6] was > 100 µM (inactive) in each case. The GI50 in [7] was > 100 µM (inactive).
Turning to `COc1cc(C(=O)Nc2cccc3ccccc23)c(Br)c(OC)c1OC`, the GI50 in experiment [8] is 4.33 µM (inactive); in experiment [1], 58.6 µM (inactive); in [9], > 100 µM (inactive); in experiment [4], > 100 µM (inactive); in experiment [5] it was 30.7 µM (inactive); in experiment [6], > 100 µM (inactive).
